Columns and labels:
[1] = biological target: TrkA (histidine-tagged recombinant human TrkA, cytoplasmic domain) (Homo sapiens (Human), UniProt P04629); test: TrkA ELISA Assay; assay type: biochemical; settings: Table 1; ELISA, 500 μM ATP; read-out: TrkA Enzyme IC50
Summary of the method: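 His-tagged human TrkA cytoplasmic domain phosphorylated poly(Glu,Ala,Tyr 6:3:1) coated at 0.025 mg/mL, with inhibitors present. Phosphotyrosine was detected with HRP-conjugated PY20 antibody (0.2 μg/mL) and TMB, read as absorbance at 450 nm after phosphoric acid stop.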

Human Jak2 kinase domain = Human Jak2 kinase domain (Homo sapiens (Human), UniProt O60674); test: Jak2 Inhibition Assay (Omnia kinase assay); assay type: biochemical; settings: Table 1; 500 μM ATP; >1000 nM when >50% inhibition not observed at 1000 nM; read-out: Jak2 Enzyme IC50
Sequence of Human Jak2 kinase domain (O60674 808-1132): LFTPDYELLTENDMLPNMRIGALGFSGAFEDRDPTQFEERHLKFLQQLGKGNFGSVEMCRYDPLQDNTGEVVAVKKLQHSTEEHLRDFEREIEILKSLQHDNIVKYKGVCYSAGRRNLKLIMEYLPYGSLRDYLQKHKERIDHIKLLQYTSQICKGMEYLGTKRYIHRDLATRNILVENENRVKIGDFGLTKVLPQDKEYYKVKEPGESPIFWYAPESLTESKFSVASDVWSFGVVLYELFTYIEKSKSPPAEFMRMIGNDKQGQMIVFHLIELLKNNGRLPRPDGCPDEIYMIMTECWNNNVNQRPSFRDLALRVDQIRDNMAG

Sequence of TrkA (histidine-tagged recombinant human TrkA, cytoplasmic domain) (P04629 440-796): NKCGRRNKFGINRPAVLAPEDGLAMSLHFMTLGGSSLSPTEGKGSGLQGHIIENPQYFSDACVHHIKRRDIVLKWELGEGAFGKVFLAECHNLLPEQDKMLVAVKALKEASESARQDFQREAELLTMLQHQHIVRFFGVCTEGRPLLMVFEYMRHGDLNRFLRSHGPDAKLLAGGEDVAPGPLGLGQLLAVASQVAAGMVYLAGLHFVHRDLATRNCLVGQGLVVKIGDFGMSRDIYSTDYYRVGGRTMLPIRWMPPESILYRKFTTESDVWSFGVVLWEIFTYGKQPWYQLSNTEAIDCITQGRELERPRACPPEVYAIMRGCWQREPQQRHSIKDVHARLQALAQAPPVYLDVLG

Structure (SMILES) | IC50 [1] | IC50 (Human Jak2 kinase domain)
O=C(N[C@@H]1CCC[C@H]1O)c1cnn2ccc(N3CCC[C@@H]3c3cncc(F)c3)nc12 [Example 133, 5-((R)-2-(5-fluoropyridin-3-yl)pyrrolidin-1-yl)-N-((1R,2R)-2-hydroxycyclopentyl)pyrazolo[1,5-a]pyrimidine-3-carboxamide] | 16 nM | > 1000 nM
O=C(N[C@@H]1CCC[C@@H]1O)c1cnn2ccc(N3CCC[C@@H]3c3cncc(F)c3)nc12 [Example 135, 5-((R)-2-(5-fluoropyridin-3-yl)pyrrolidin-1-yl)-N-((1R,2S)-2-hydroxycyclopentyl)pyrazolo[1,5-a]pyrimidine-3-carboxamide] | 142 nM | > 1000 nM
O=C(N[C@@H]1CCCC[C@H]1O)c1cnn2ccc(N3CCC[C@@H]3c3cncc(F)c3)nc12 [Example 136, 5-((R)-2-(5-fluoropyridin-3-yl)pyrrolidin-1-yl)-N-((1R,2R)-2-hydroxycyclohexyl)pyrazolo[1,5-a]pyrimidine-3-carboxamide] | 26.3 nM | > 1000 nM
O=C(c1cnn2ccc(N3CCC[C@@H]3c3cncc(F)c3)nc12)N1CCCCC1 [Example 137, (R)-(5-(2-(5-fluoropyridin-3-yl)pyrrolidin-1-yl)pyrazolo[1,5-a]pyrimidin-3-yl)(piperidin-1-yl)methanone] | 794 nM | > 1000 nM
O=C(N[C@@H]1C2CC[C@@H](C2)[C@@H]1CO)c1cnn2ccc(N3CCC[C@@H]3c3cncc(F)c3)nc12 [Example 138, 5-((R)-2-(5-fluoropyridin-3-yl)pyrrolidin-1-yl)-N-((2R,3S,4S)-3-(hydroxymethyl)bicyclo[2.2.1]heptan-2-yl)pyrazolo[1,5-a]pyrimidine-3-carboxamide] | 34.8 nM | > 1000 nM
COc1ncc(F)cc1[C@H]1CCCN1c1ccn2ncc(C(=O)N3CC(O)C3)c2n1 [Example 139, (R)-(5-(2-(5-fluoro-2-methoxypyridin-3-yl)pyrrolidin-1-yl)pyrazolo[1,5-a]pyrimidin-3-yl)(3-hydroxyazetidin-1-yl)methanone] | 32.7 nM | > 1000 nM
COc1ncc(F)cc1[C@H]1CCCN1c1ccn2ncc(C(=O)N3CC(C)(O)C3)c2n1 [Example 147, (R)-(5-(2-(5-fluoro-2-methoxypyridin-3-yl)pyrrolidin-1-yl)pyrazolo[1,5-a]pyrimidin-3-yl)(3-hydroxy-3-methylazetidin-1-yl)methanone] | 30.8 nM | > 1000 nM
COc1ncc(F)cc1[C@H]1CCCN1c1ccn2ncc(C(=O)NC[C@@H](O)CO)c2n1 [Example 150, N-((R)-2,3-dihydroxypropyl)-5-((R)-2-(5-fluoro-2-methoxypyridin-3-yl)pyrrolidin-1-yl)pyrazolo[1,5-a]pyrimidine-3-carboxamide] | 5.7 nM | > 1000 nM
COc1ncc(F)cc1[C@H]1CCCN1c1ccn2ncc(C(=O)NCCCCO)c2n1 [Example 151, (R)-5-(2-(5-fluoro-2-methoxypyridin-3-yl)pyrrolidin-1-yl)-N-(4-hydroxybutyl)pyrazolo[1,5-a]pyrimidine-3-carboxamide] | 1.4 nM | > 1000 nM
COc1ncc(F)cc1[C@H]1CCCN1c1ccn2ncc(C(=O)NOCCOC(C)(C)C)c2n1 [Example 152, (R)-N-(2-tert-butoxyethoxy)-5-(2-(5-fluoro-2-methoxypyridin-3-yl)pyrrolidin-1-yl)pyrazolo[1,5-a]pyrimidine-3-carboxamide] | 18.1 nM | > 1000 nM
CNC(=O)c1cnn2ccc(N3CCC[C@@H]3c3cc(F)cnc3OC)nc12 [Example 153, (R)-5-(2-(5-fluoro-2-methoxypyridin-3-yl)pyrrolidin-1-yl)-N-methylpyrazolo[1,5-a]pyrimidine-3-carboxamide] | 2.1 nM | > 1000 nM
COc1ncc(F)cc1[C@H]1CCCN1c1ccn2ncc(C(=O)NC[C@@H](C)O)c2n1 [Example 157, 5-((R)-2-(5-fluoro-2-methoxypyridin-3-yl)pyrrolidin-1-yl)-N-((R)-2-hydroxypropyl)pyrazolo[1,5-a]pyrimidine-3-carboxamide] | 2.8 nM | > 1000 nM
COc1ncc(F)cc1[C@H]1CCCN1c1ccn2ncc(C(=O)NC3CCN(CCO)CC3)c2n1 [Example 159, (R)-5-(2-(5-fluoro-2-methoxypyridin-3-yl)pyrrolidin-1-yl)-N-(1-(2-hydroxyethyl)piperidin-4-yl)pyrazolo[1,5-a]pyrimidine-3-carboxamide] | 4.3 nM | > 1000 nM
COc1ncc(F)cc1[C@H]1CCCN1c1ccn2ncc(C(=O)NC(CO)CO)c2n1 [Example 160, (R)-N-(1,3-dihydroxypropan-2-yl)-5-(2-(5-fluoro-2-methoxypyridin-3-yl)pyrrolidin-1-yl)pyrazolo[1,5-a]pyrimidine-3-carboxamide] | 25.6 nM | > 1000 nM
O=C(NCCO)c1cnn2ccc(N3CCCC3c3cc(F)ccc3F)nc12 (stereo not shown) [Example 165, 5-(2-(2,5-difluorophenyl)pyrrolidin-1-yl)-N-(2-hydroxyethyl)pyrazolo[1,5-a]pyrimidine-3-carboxamide] | 1.1 nM | > 1000 nM
C[C@H](O)CNC(=O)c1cnn2ccc(N3CCC[C@@H]3c3cc(F)ccc3F)nc12 [Example 166, 5-((R)-2-(2,5-difluorophenyl)pyrrolidin-1-yl)-N-(2-hydroxypropyl)pyrazolo[1,5-a]primidine-3-carboxamide] | 2.4 nM | > 1000 nM
O=C(N[C@H]1CC[C@H](O)C1)c1cnn2ccc(N3CCC[C@@H]3c3cc(F)ccc3F)nc12 [Example 169, 5-((R)-2-(2,5-difluorophenyl)pyrrolidin-1-yl)-N-((1S,3S)-3-hydroxycyclopentyl)pyrazolo[1,5-a]pyrimidine-3-carboxamide] | 0.9 nM | 759 nM
CN1CCN(CCNC(=O)c2cnn3ccc(N4CCC[C@@H]4c4cc(F)ccc4F)nc23)CC1 [Example 171, 5-((R)-2-(2,5-difluorophenyl)pyrrolidin-1-yl)-N-(2-(4-methylpiperazin-1-yl)ethyl)pyrazolo[1,5-a]pyrimidine-3-carboxamide] | 4.7 nM | > 1000 nM

More lines, in order of falling IC50 [1], values ahead:

IC50 [1] | IC50 (Human Jak2 kinase domain) | Structure (SMILES)
12.7 nM | > 1000 nM | NCCCNC(=O)c1cnn2ccc(N3CCC[C@@H]3c3cc(F)c[nH]c3=O)nc12 [Example 142, (R)—N-(3-aminopropyl)-5-(2-(5-fluoro-2-oxo-1,2-dihydropyridin-3-yl)pyrrolidin-1-yl)pyrazolo[1,5-a]pyrimidine-3-carboxamide]
9.9 nM | > 1000 nM | COc1ncc(F)cc1[C@H]1CCCN1c1ccn2ncc(C(=O)NCC(C)(C)O)c2n1 [Example 158, (R)-5-(2-(5-fluoro-2-methoxypyridin-3-yl)pyrrolidin-1-yl)-N-(2-hydroxy-2-methylpropyl)pyrazolo[1,5-a]pyrimidine-3-carboxamide]
8 nM | > 1000 nM | COc1ncc(F)cc1[C@H]1CCCN1c1ccn2ncc(C(=O)NC[C@H](O)CO)c2n1 [Example 143, N—((S)-2,3-dihydroxypropyl)-5-((R)-2-(5-fluoro-2-methoxypyridin-3-yl)pyrrolidin-1-yl)pyrazolo[1,5-a]pyrimidine-3-carboxamide]
7.4 nM | > 1000 nM | O=C(NCC(F)F)c1cnn2ccc(N3CCC[C@@H]3c3cncc(F)c3)nc12 [Example 134, (R)-N-(2,2-difluoroethyl)-5-(2-(5-fluoropyridin-3-yl)pyrrolidin-1-yl)pyrazolo[1,5-a]pyrimidine-3-carboxamide]
6.1 nM | > 1000 nM | COc1ncc(F)cc1[C@H]1CCCN1c1ccn2ncc(C(=O)NCC(O)CO)c2n1 (stereo partly drawn) [Example 149, N-(2,3-dihydroxypropyl)-5-((R)-2-(5-fluoro-2-methoxypyridin-3-yl)pyrrolidin-1-yl)pyrazolo[1,5-a]pyrimidine-3-carboxamide]
3 nM | > 1000 nM | COc1ncc(F)cc1[C@H]1CCCN1c1ccn2ncc(C(=O)Nc3ccc(=O)[nH]c3)c2n1 [Example 161, (R)-5-(2-(5-fluoro-2-methoxypyridin-3-yl)pyrrolidin-1-yl)-N-(6-oxo-1,6-dihydropyridin-3-yl)pyrazolo[1,5-a]pyrimidine-3-carboxamide]
2.2 nM | 444 nM | COc1ncc(F)cc1[C@H]1CCCN1c1ccn2ncc(C(=O)NC3CCN(S(C)(=O)=O)CC3)c2n1 [Example 162, (R)-5-(2-(5-fluoro-2-methoxypyridin-3-yl)pyrrolidin-1-yl)-N-(1-(methylsulfonyl)piperidin-4-yl)pyrazolo[1,5-a]pyrimidine-3-carboxamide]
2.1 nM | > 1000 nM | COc1ncc(F)cc1[C@H]1CCCN1c1ccn2ncc(C(=O)NC[C@H](C)O)c2n1 [Example 156, 5-((R)-2-(5-fluoro-2-methoxypyridin-3-yl)pyrrolidin-1-yl)-N-((S)-2-hydroxypropyl)pyrazolo[1,5-a]pyrimidine-3-carboxamide]
1.3 nM | 524 nM | COc1ncc(F)cc1[C@H]1CCCN1c1ccn2ncc(C(=O)N[C@H]3CC[C@H](O)C3)c2n1 [Example 154, 5-((R)-2-(5-fluoro-2-methoxypyridin-3-yl)pyrrolidin-1-yl)-N-((1S,3S)-3-hydroxycyclopentyl)pyrazolo[1,5-a]pyrimidine-3-carboxamide]
1.1 nM | > 1000 nM | COc1ncc(F)cc1[C@H]1CCCN1c1ccn2ncc(C(=O)NCCCO)c2n1 [Example 148, (R)-5-(2-(5-fluoro-2-methoxypyridin-3-yl)pyrrolidin-1-yl)-N-(3-hydroxypropyl)pyrazolo[1,5-a]pyrimidine-3-carboxamide]
0.2 nM | > 1000 nM | COc1ncc(F)cc1[C@H]1CCCN1c1ccn2ncc(C(=O)NCCO)c2n1 [Example 155, (R)-5-(2-(5-fluoro-2-methoxypyridin-3-yl)pyrrolidin-1-yl)-N-(2-hydroxyethyl)pyrazolo[1,5-a]pyrimidine-3-carboxamide]

From patent publication US8791123B2, “Substituted pyrazolo[1,5-a]pyrimidine compounds as Trk kinase inhibitors” (Array Biopharma, Inc., priority 2009, dated 2014)
